Experimental data published in the supplement of paper PMC7661543.
± gives the standard deviation of the averaged measurements.

How the values were obtained:
Test in all cases: relative cell number vs DMSO control (72 h) (% of DMSO); higher = less growth inhibition (more cells)
Conditions in all cases: sgRNA knockout: sgNT
HCC-38 = test system: HCC-38
Description: (§1)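 QMAP-Seq: a pool of 5 breast cancer cell lines (ZR-75-1, SKBR3, HCC-38, MDA-MB-231, BT-20), each carrying 12 doxycycline-inducible Cas9 sgRNA perturbations (11 knockouts plus non-targeting sgNT), was treated with compounds for 72 h at four 10-fold doses (10 nM-10 uM or 1 nM-1 uM range). Barcodes were amplified and sequenced, and cell number was interpolated from 293T spike-in standard curves. The result is expressed as % of the median of DMSO wells. Two biological replicates.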

BT-20 = test system: BT-20
Description: as §1

MDA-MB-231 = test system: MDA-MB-231
Description: as §1

SKBR3 = test system: SKBR3
Description: as §1

ZR-75-1 = test system: ZR-75-1
Description: as §1

| Structure (SMILES) | relative cell number (HCC-38; 10 nM) | relative cell number (HCC-38; 100 nM) | relative cell number (HCC-38; 1000 nM) | relative cell number (HCC-38; 10000 nM) | relative cell number (BT-20; 10 nM) | relative cell number (BT-20; 100 nM) | relative cell number (BT-20; 1000 nM) | relative cell number (BT-20; 10000 nM) | relative cell number (MDA-MB-231; 10 nM) | relative cell number (MDA-MB-231; 100 nM) | relative cell number (MDA-MB-231; 1000 nM) | relative cell number (MDA-MB-231; 10000 nM) | relative cell number (SKBR3; 10 nM) | relative cell number (SKBR3; 100 nM) | relative cell number (SKBR3; 1000 nM) | relative cell number (SKBR3; 10000 nM) | relative cell number (ZR-75-1; 10 nM) | relative cell number (ZR-75-1; 100 nM) | relative cell number (ZR-75-1; 1000 nM) | relative cell number (ZR-75-1; 10000 nM) |
| --- | --- | --- | --- | --- | --- | --- | --- | --- | --- | --- | --- | --- | --- | --- | --- | --- | --- | --- | --- | --- |
| CCCS(=O)(=O)Nc1ccc(F)c(C(=O)c2c[nH]c3ncc(Cl)cc23)c1F [PLX4720] | 103 ± 13 | 109 ± 15 | 110 ± 17 | 98.3 ± 14 | 104 ± 12 | 75.4 ± 11 | 98.4 ± 7.7 | 121 ± 32 | 129.8 ± 0.69 | 136 ± 62 | 70.5 ± 9.8 | 98 ± 3.6 | 109 ± 24 | 105 ± 22 | 93.3 ± 14 | 94.8 ± 13 | 138 ± 42 | 96.7 ± 15 | 123 ± 22 | 173 ± 42 |
| CCC(C)SSc1ncc[nH]1 (stereo not given) [PX12] | 113 ± 8.1 | 101 ± 15 | 93.6 ± 8.6 | 84.9 ± 8.4 | 116 ± 7.8 | 132 ± 1.4 | 100 ± 4.2 | 99.6 ± 31 | 104 ± 30 | 128 ± 20 | 99.5 ± 25 | 54.6 ± 0.63 | 95.4 ± 14 | 95.5 ± 65 | 88.8 ± 31 | 57.7 ± 24 | 116 ± 19 | 102 ± 48 | 69.5 ± 9.5 | 54.7 ± 25 |
| CCOC(=O)c1ccc(N2NC(=O)C(=Cc3ccc([N+](=O)[O-])o3)C2=O)cc1 [PYR41] | 85.8 ± 4.7 | 89.9 ± 13 | 101.7 ± 0.8 | 84.8 ± 5.1 | 93.7 ± 24 | 101 ± 13 | 103 ± 17 | 102.7 ± 0.59 | 133 ± 62 | 106 ± 11 | 87.6 ± 62 | 111 ± 6.8 | 106 ± 8.4 | 83.5 ± 17 | 98.3 ± 18 | 64.5 ± 46 | 125 ± 29 | 72.9 ± 28 | 100 ± 1.6 | 97.4 ± 40 |
| CC(=O)O[C@H]1C(=O)[C@@]2(C)[C@H]([C@H](OC(=O)c3ccccc3)[C@]3(O)C[C@H](OC(=O)[C@H](O)[C@@H](NC(=O)c4ccccc4)c4ccccc4)C(C)=C1C3(C)C)[C@]1(OC(C)=O)CO[C@@H]1C[C@@H]2O [Paclitaxel] | 31.4 ± 5.5 | 14.4 ± 5.1 | 18 ± 2.9 | 25.4 ± 3.6 | 57.9 ± 10 | 18.7 ± 15 | 25.7 ± 9.2 | 47.3 ± 15 | 28.8 ± 15 | 15.6 ± 2.2 | 21.4 ± 7.8 | 29.9 ± 10 | 10.2 ± 2.9 | 6.23 ± 1.4 | 11.1 ± 1.4 | 16.4 ± 9.7 | 28.3 ± 2 | 18.6 ± 18 | 21.6 ± 3.9 | 43.8 ± 17 |
| CC(=O)c1c(C)c2cnc(Nc3ccc(N4CCNCC4)cn3)nc2n(C2CCCC2)c1=O [Palbociclib] | 74.3 ± 13 | 37.4 ± 10 | 44.4 ± 2 | 42.2 ± 0.9 | 87.4 ± 11 | 41.8 ± 13 | 45.8 ± 1.1 | 53.889 ± 0.041 | 97.3 ± 57 | 30.6 ± 16 | 22.5 ± 2.1 | 22.1 ± 6 | 90.3 ± 0.5 | 52.1 ± 5.9 | 51.3 ± 4.3 | 43.8 ± 16 | 66.5 ± 20 | 36.6 ± 2.5 | 30 ± 3.5 | 29.9 ± 3 |
| C=C1C(=O)O[C@H]2[C@H]1CC/C(C)=C/CC[C@@]1(C)O[C@@H]21 [Parthenolide] | 114 ± 6.1 | 92.6 ± 2 | 98.6 ± 16 | 113 ± 13 | 108 ± 14 | 101 ± 3.3 | 93.2 ± 14 | 96.5 ± 20 | 130 ± 77 | 123 ± 43 | 126 ± 11 | 124.5 ± 0.77 | 98.3 ± 24 | 122 ± 28 | 96.6 ± 16 | 98.9 ± 4.2 | 94.9 ± 35 | 128 ± 21 | 71.5 ± 53 | 122 ± 3.6 |
